Results as given in the NIST ThermoML archive (doi:10.1016/j.tca.2017.04.014).
± gives the expanded uncertainty stated by the source.

Test: molar heat capacity at constant pressure; xn = mol fraction of the nth substance listed
Settings: 101.3 kPa, Crystal, DSC

[O-2].[O-2].[Th+4] [thorium dioxide] + [O-2].[O-2].[U+4]
molar heat capacity at constant pressure [J/K/mol]
Settings | x1 = 0.3 | x1 = 0.5 | x1 = 0.6 | x1 = 0.7 | x1 = 0.8 | x1 = 0.9 | x1 = 1
300 K | 73.2 ± 7.2 | 70.4 ± 8 | 67.7 ± 7 | 66.6 ± 6.8 | 66.7 ± 7.4 | 65.1 ± 7.4 | 62.1 ± 7.7
310 K | 73.7 ± 7.5 | 71.8 ± 8 | 69.3 ± 7.2 | 67.6 ± 6.9 | 67.3 ± 7.6 | 66.4 ± 7.8 | 61.8 ± 6.4
320 K | 75.6 ± 7.6 | 72.6 ± 8 | 70.2 ± 7 | 68.6 ± 6.9 | 67.9 ± 7.6 | 67.5 ± 7.8 | 62.8 ± 7.3
330 K | 75.9 ± 7.6 | 73.8 ± 8.3 | 71 ± 7.5 | 69.3 ± 6.9 | 69.1 ± 7.8 | 68 ± 7.8 | 63.5 ± 6
340 K | 76.7 ± 7.2 | 75.1 ± 8.4 | 71.9 ± 7.8 | 69.9 ± 6.9 | 69.7 ± 7.8 | 69 ± 8 | 64.2 ± 5.5
350 K | 78 ± 7.6 | 76.1 ± 9.1 | 72.6 ± 8.3 | 70.4 ± 7.1 | 70.8 ± 8 | 70.1 ± 8.2 | 65.1 ± 6.8
360 K | 78.6 ± 9 | 76.8 ± 9.1 | 73.3 ± 8.3 | 70.8 ± 7.1 | 72.1 ± 8 | 71.7 ± 8.3 | 65.6 ± 6.8
370 K | 78.9 ± 8.8 | 77 ± 8.8 | 74.5 ± 8.4 | 71.4 ± 7.3 | 72.3 ± 8 | 71.7 ± 8.3 | 65.9 ± 6.8
380 K | 79.8 ± 8.9 | 77.5 ± 9.6 | 75.1 ± 9.1 | 72 ± 8.3 | 72.3 ± 8.8 | 72 ± 8.2 | 66.8 ± 7.2
390 K | 80.2 ± 8.4 | 79 ± 8.6 | 75.8 ± 8.4 | 72.9 ± 7.7 | 74.1 ± 8.8 | 73 ± 8.3 | 67.3 ± 7.2
400 K | 80.8 ± 9.2 | 79.3 ± 9.6 | 76.4 ± 9.1 | 73.9 ± 8.4 | 74.8 ± 8.8 | 73.8 ± 8.1 | 67.7 ± 6.8
410 K | 81.3 ± 9.4 | 79.6 ± 10 | 76.8 ± 9.7 | 73.8 ± 8.5 | 74.8 ± 7.5 | 74.4 ± 7.2 | 68 ± 6.8
420 K | 81.5 ± 8.8 | 80.3 ± 9 | 77.3 ± 8.6 | 75.1 ± 7.2 | 75.4 ± 7.5 | 74.1 ± 7.4 | 68.4 ± 6.8
430 K | 82.1 ± 8.8 | 81.2 ± 9.2 | 77.5 ± 8.8 | 75.5 ± 7.2 | 75.9 ± 7.5 | 74.4 ± 7.4 | 68.6 ± 7.2
440 K | 82.3 ± 7.6 | 81.2 ± 7.9 | 77.9 ± 7.6 | 75.8 ± 6.8 | 76.4 ± 7.7 | 74.9 ± 7.4 | 68.9 ± 7.4
450 K | 83.3 ± 7.7 | 82.1 ± 8.1 | 78.6 ± 8 | 75.7 ± 6.4 | 76.9 ± 7.7 | 76 ± 7.6 | 69.6 ± 7.4
460 K | 83.7 ± 7.9 | 82.2 ± 8.5 | 79.4 ± 8.3 | 75.8 ± 6.5 | 77.2 ± 7.9 | 76.2 ± 7.6 | 69.8 ± 7.2
470 K | 83.9 ± 7.2 | 82.8 ± 8.3 | 79.5 ± 8.2 | 76.2 ± 7.2 | 77.5 ± 7.9 | 76.7 ± 7.8 | 70.1 ± 8.2
480 K | 84 ± 7.5 | 83.5 ± 8.6 | 80.2 ± 9 | 76.6 ± 7.6 | 77.3 ± 7.9 | 77 ± 7.8 | 70.2 ± 7.4
490 K | 84.5 ± 7.1 | 83 ± 6.7 | 80 ± 6.7 | 77.9 ± 6 | 78 ± 8.1 | 77 ± 7.8 | 70.5 ± 6.1
500 K | 84.9 ± 6.8 | 83.8 ± 6.5 | 80.7 ± 6.7 | 78.1 ± 5.8 | 78.8 ± 8.1 | 77 ± 8 | 70.7 ± 7.1
510 K | 85.5 ± 7.3 | 84.1 ± 7.1 | 80.7 ± 7.3 | 77.9 ± 6.1 | 78.6 ± 8.5 | 78.3 ± 8 | 70.9 ± 6.3
520 K | 85.3 ± 8.2 | 84.8 ± 8.7 | 81 ± 8.7 | 78.3 ± 6.3 | 79 ± 8.7 | 78.6 ± 8.2 | 71.2 ± 6.5
530 K | 85.5 ± 7.1 | 84.5 ± 7.1 | 81 ± 7.3 | 78.4 ± 6.3 | 79.6 ± 7.7 | 78.6 ± 7.3 | 71.4 ± 6.5
540 K | 86.4 ± 7.6 | 85 ± 7.3 | 81.5 ± 7.5 | 78.9 ± 6.5 | 79.7 ± 7.7 | 78.9 ± 7.3 | 71.7 ± 6.5
550 K | 86.6 ± 7.7 | 85.1 ± 7.6 | 82.9 ± 7.7 | 79.6 ± 6.9 | 80 ± 7.9 | 78.9 ± 7.3 | 71.9 ± 7.1
560 K | 86.7 ± 8.6 | 85.8 ± 7.9 | 82.8 ± 8.1 | 79.8 ± 7.1 | 80.2 ± 7.6 | 79.1 ± 7.1 | 72 ± 5.4
570 K | 86.7 ± 7.3 | 86.2 ± 8.1 | 82.8 ± 5 | 80.3 ± 6.4 | 80.1 ± 7.2 | 79.7 ± 7.8 | 72.1 ± 6.5
580 K | 87.1 ± 5.8 | 85.6 ± 7.2 | 83.4 ± 5.2 | 80.5 ± 6.4 | 80.2 ± 6.8 | 79.7 ± 8 | 72.3 ± 5.1
590 K | 87.4 ± 6 | 86.7 ± 5.6 | 83.4 ± 5.3 | 80.6 ± 5.1 | 80.5 ± 7.9 | 79.7 ± 7.3 | 72.5 ± 5.3
600 K | 88 ± 5.7 | 87 ± 5.1 | 83.7 ± 5.5 | 80.6 ± 5.3 | 80.6 ± 7.9 | 79.7 ± 7.3 | 72.5 ± 7.1
610 K | 87.5 ± 6 | 86.6 ± 4.7 | 84.4 ± 6 | 80.6 ± 5 | 80.6 ± 7.9 | 79.7 ± 7.3 | 72.5 ± 5.3
620 K | 88 ± 6.9 | 86.9 ± 5.2 | 84.8 ± 6 | 81.2 ± 5.3 | 80.6 ± 7.9 | 79.9 ± 7.5 | 73 ± 5.3
630 K | 88.5 ± 6.6 | 87.5 ± 5.5 | 84.2 ± 6.1 | 81.4 ± 5.1 | 81.1 ± 7.9 | 80.2 ± 7.5 | 73 ± 5.8
640 K | 88.7 ± 6.2 | 87.2 ± 5.6 | 85.1 ± 6 | 81.5 ± 5.2 | 81.1 ± 7.9 | 80.5 ± 7.5 | 73.3 ± 3.8
650 K | 88.9 ± 5.9 | 87.3 ± 5 | 85.1 ± 5.3 | 82 ± 4.7 | 80.9 ± 7.9 | 80.7 ± 7.5 | 73.6 ± 5.5
660 K | 89 ± 5.8 | 87.6 ± 4.7 | 84.9 ± 5.4 | 81.8 ± 4.6 | 81.6 ± 8 | 79.7 ± 7.5 | 73.5 ± 4
670 K | 88.9 ± 5.7 | 88.3 ± 4.6 | 85.8 ± 5.6 | 82.3 ± 4.8 | 81.9 ± 8.2 | 79.7 ± 7.3 | 73.6 ± 3.8
680 K | 89.4 ± 5.9 | 88.2 ± 4.8 | 86.4 ± 5.5 | 82.4 ± 4.9 | 81.5 ± 7.4 | 79.7 ± 7.3 | 73.6 ± 7.1
690 K | 90.2 ± 5.9 | 88.2 ± 5.2 | 86.4 ± 5.8 | 82.4 ± 5.3 | 81.6 ± 7.1 | 79.9 ± 7.3 | 73.4 ± 4
700 K | 90.4 ± 6 | 88.6 ± 4.9 | 86.4 ± 5.3 | 83.3 ± 4.8 | 81.7 ± 6.9 | 80.2 ± 4.6 | 73.8 ± 4
710 K | 91.2 ± 6.2 | 89.5 ± 5.3 | 86.4 ± 5.6 | 83.3 ± 4.7 | 82.2 ± 4.3 | 80.5 ± 4.6 | 74.5 ± 4
720 K | 91.9 ± 5.4 | 89.2 ± 5.1 | 86.7 ± 5.6 | 83.3 ± 4.9 | 82.4 ± 4.3 | 80.7 ± 4.6 | 74.5 ± 4
730 K | 92.2 ± 5.8 | 90.1 ± 5.1 | 87.3 ± 5.9 | 83.3 ± 5 | 82.7 ± 4.2 | 81.2 ± 4.6 | 74.6 ± 3.8
739 K | – | – | – | – | – | – | 74.7 ± 3.7
740 K | 92.9 ± 6 | 90.4 ± 5.4 | 87.7 ± 6 | 83.3 ± 5 | 82.7 ± 4.2 | 81.4 ± 4.6 | –
750 K | 93.1 ± 5.8 | 91 ± 5.5 | 87.8 ± 6 | 83.6 ± 4.9 | 82.7 ± 4.2 | 81.3 ± 4.8 | 74.6 ± 3.2
760 K | 93.5 ± 6.3 | 91 ± 5.3 | 89.1 ± 5.8 | 83.9 ± 5.1 | 82.9 ± 4.3 | 81.5 ± 4.9 | 75 ± 3.3
770 K | 94 ± 6.1 | 91.7 ± 5 | 89.1 ± 5.9 | 84.3 ± 5.2 | 82.8 ± 4.3 | 81.5 ± 4.9 | 75.3 ± 3.9
780 K | 94.2 ± 5.7 | 91.8 ± 5.3 | 89.1 ± 5.8 | 84.5 ± 5.3 | 83.1 ± 4.3 | 81 ± 4.7 | 75.3 ± 3.7
790 K | 94.3 ± 5.6 | 92.3 ± 5.1 | 89.1 ± 6.2 | 84.9 ± 5.3 | 83 ± 4.3 | 81.8 ± 4.9 | 75.3 ± 3.7
800 K | 94.4 ± 6.2 | 92.3 ± 5 | 89.1 ± 6.2 | 84.9 ± 5.2 | 83.3 ± 4.3 | 81.3 ± 4.9 | 75.7 ± 3.2
810 K | 95 ± 6.1 | 92.7 ± 5.3 | 89.8 ± 6.2 | 85.3 ± 5.3 | 83.1 ± 4.3 | 82.3 ± 4.9 | 75.7 ± 3.3
820 K | 95.3 ± 5.7 | 92 ± 5.3 | 90.2 ± 5.9 | 85.7 ± 5.7 | 83.2 ± 4.3 | 82.3 ± 4.9 | 75.7 ± 3.3
830 K | 95.6 ± 5.8 | 92.8 ± 5.1 | 89.5 ± 5.6 | 86 ± 5.1 | 83.3 ± 4.3 | 82.3 ± 4.9 | 75.9 ± 3.5
840 K | 96 ± 6.4 | 92.9 ± 5.5 | 90.3 ± 5.8 | 86 ± 5.4 | 83.5 ± 4.4 | 82.3 ± 3.7 | 76 ± 3.7
850 K | 96.1 ± 6.6 | 93.2 ± 5.6 | 90.7 ± 5.9 | 86 ± 5.4 | 83.6 ± 4.2 | 82.3 ± 4.3 | 76.1 ± 4.3
860 K | 96.1 ± 6.3 | 93.4 ± 5.5 | 90.7 ± 6 | 86 ± 5.8 | 83.7 ± 4.4 | 83.4 ± 4.2 | 76.4 ± 4
870 K | 96.3 ± 6.3 | 93.8 ± 5.1 | 90.8 ± 6 | 86.4 ± 5.5 | 84 ± 4.2 | 83.9 ± 4.5 | 76.1 ± 4.2
